# PubChem BioAssay (NCI)
#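 A five-concentration, 48-hour dose response in 96-well plates underlies each endpoint, interpolated linearly between surrounding concentrations. The concentration for full growth arrest is given as TGI.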
# Legend:
# Assay in all cases: NCI-60 cell line screen, 48 h
# HOP-92 NSCLC = system: HOP-92 NSCLC
# SF-268 CNS = system: SF-268 CNS
# OVCAR-4 ovarian = system: OVCAR-4 ovarian
# 786-0 renal = system: 786-0 renal
# OVCAR-3 ovarian = system: OVCAR-3 ovarian
# NCI-H460 lung = system: NCI-H460 lung
# SW-620 colon = system: SW-620 colon
# MDA-MB-231 breast = system: MDA-MB-231 breast
# UO-31 renal = system: UO-31 renal
# A549 NSCLC = system: A549 NSCLC
# SF-295 CNS = system: SF-295 CNS
# M14 melanoma = system: M14 melanoma
# SK-MEL-28 melanoma = system: SK-MEL-28 melanoma
# NCI/ADR-RES ovarian = system: NCI/ADR-RES ovarian
# KM12 colon = system: KM12 colon
# OVCAR-5 ovarian = system: OVCAR-5 ovarian
# NCI-H23 lung = system: NCI-H23 lung
# HCC-2998 colon = system: HCC-2998 colon
# SR leukemia = system: SR leukemia
# MDA-MB-435 = system: MDA-MB-435
# SK-OV-3 ovarian = system: SK-OV-3 ovarian
# OVCAR-8 ovarian = system: OVCAR-8 ovarian
# TK-10 renal = system: TK-10 renal
# UACC-257 melanoma = system: UACC-257 melanoma
# RPMI-8226 leukemia = system: RPMI-8226 leukemia
# SF-539 CNS = system: SF-539 CNS
# CCRF-CEM leukemia = system: CCRF-CEM leukemia
# IGROV1 ovarian = system: IGROV1 ovarian
# MOLT-4 leukemia = system: MOLT-4 leukemia
# SK-MEL-2 melanoma = system: SK-MEL-2 melanoma
# U251 CNS = system: U251 CNS
# HCT-15 colon = system: HCT-15 colon
# SK-MEL-5 melanoma = system: SK-MEL-5 melanoma
# BT-549 breast = system: BT-549 breast
# CAKI-1 renal = system: CAKI-1 renal
# HL-60(TB) leukemia = system: HL-60(TB) leukemia
# HT29 colon = system: HT29 colon
# LOX IMVI melanoma = system: LOX IMVI melanoma
# COLO 205 colon = system: COLO 205 colon
# HS 578T breast = system: HS 578T breast
# UACC-62 melanoma = system: UACC-62 melanoma
# PC-3 prostate = system: PC-3 prostate
# NCI-H226 lung = system: NCI-H226 lung
# DU-145 prostate = system: DU-145 prostate
# K-562 leukemia = system: K-562 leukemia
# EKVX NSCLC = system: EKVX NSCLC
# SN12C renal = system: SN12C renal
# NCI-H522 lung = system: NCI-H522 lung
# MCF7 breast = system: MCF7 breast
# HCT-116 colon = system: HCT-116 colon
compound,measurement,setting,value
c1ccc2c(c1)nc1n2sc2nc3ccccc3n21,TGI,HOP-92 NSCLC,> 100 µM
same,TGI,SF-268 CNS,> 100 µM
same,TGI,OVCAR-4 ovarian,> 100 µM
same,TGI,786-0 renal,> 100 µM
same,TGI,OVCAR-3 ovarian,> 100 µM
same,TGI,NCI-H460 lung,> 100 µM
same,TGI,SW-620 colon,> 100 µM
same,TGI,MDA-MB-231 breast,> 100 µM
same,TGI,UO-31 renal,> 100 µM
same,TGI,A549 NSCLC,> 100 µM
same,TGI,SF-295 CNS,> 100 µM
same,TGI,M14 melanoma,> 100 µM
same,TGI,SK-MEL-28 melanoma,> 100 µM
same,TGI,NCI/ADR-RES ovarian,> 100 µM
same,TGI,KM12 colon,> 100 µM
same,TGI,OVCAR-5 ovarian,> 100 µM
same,TGI,NCI-H23 lung,> 100 µM
same,TGI,HCC-2998 colon,> 100 µM
same,TGI,SR leukemia,> 100 µM
same,TGI,MDA-MB-435,> 100 µM
same,TGI,SK-OV-3 ovarian,> 100 µM
same,TGI,OVCAR-8 ovarian,> 100 µM
same,TGI,TK-10 renal,> 100 µM
same,TGI,UACC-257 melanoma,> 100 µM
same,TGI,RPMI-8226 leukemia,> 100 µM
same,TGI,SF-539 CNS,> 100 µM
same,TGI,CCRF-CEM leukemia,> 100 µM
same,TGI,IGROV1 ovarian,> 100 µM
same,TGI,MOLT-4 leukemia,> 100 µM
same,TGI,SK-MEL-2 melanoma,> 100 µM
same,TGI,U251 CNS,> 100 µM
same,TGI,HCT-15 colon,> 100 µM
same,TGI,SK-MEL-5 melanoma,> 100 µM
same,TGI,BT-549 breast,> 100 µM
same,TGI,CAKI-1 renal,> 100 µM
same,TGI,HL-60(TB) leukemia,> 100 µM
same,TGI,HT29 colon,> 100 µM
same,TGI,LOX IMVI melanoma,> 100 µM
same,TGI,COLO 205 colon,> 100 µM
same,TGI,HS 578T breast,> 100 µM
same,TGI,UACC-62 melanoma,79 µM
same,TGI,PC-3 prostate,> 100 µM
same,TGI,NCI-H226 lung,> 100 µM
same,TGI,DU-145 prostate,> 100 µM
same,TGI,K-562 leukemia,> 100 µM
same,TGI,EKVX NSCLC,> 100 µM
same,TGI,SN12C renal,> 100 µM
same,TGI,NCI-H522 lung,> 100 µM
same,TGI,MCF7 breast,> 100 µM
same,TGI,HCT-116 colon,> 100 µM
